These results are taken from patent US20120021967A1, “SYNTHETIC ANTIBODIES” (Arizona Board of Regents, A Body Corporate of the State Of …, priority 2008, published 2012).

Assay [1] concerns the target T1, transferrin (Homo sapiens, UniProt P02787). The assay is described as follows: SPR of lysine-linked synbodies on immobilized transferrin, Kd from kinetics. The format is binding. Particulars: Kd determined from kinetics; read-out: Kd with respect to transferrin. The procedure: Transferrin 25 μg/ml in immobilization buffer selected for correct pH was then applied 302 at a flow rate of 5 to 10 μl/min for a contact time of about 5 to 10 minutes, allowing the amine functionality on the transferrin 308 to displace the activated NHS ester and bond to the surface via an amide bond. Finally, ethylene diamine (1-Methylene diamine-HCl at pH 8.5) was applied 304 at a flow rate of 5 to 10 μl/min for a contact time of about 6 to 7 minutes to deactivate any remaining reactive groups on the dextran chip surface. Flow rates and contact times are adjusted as necessary to provide the surface concentration of target desired for the intended application, and may vary by target. In general, for evaluating whether binding occurs, it is preferable to immobilize a relatively large quantity of target, and higher flow rates and/or longer contact times may be used. For determining kinetics, it is preferable to limit the amount of target immobilized so as to minimize rebinding and avidity effects, and lower flow rates and/or contact times may be used.
Candidate affinity elements for the transferrin synbody TRF19, TRF21, TRF23, TRF24, TRF25, and TRF26 were individually evaluated for solution phase KD with respect to transferrin by SPR analysis. […]

For assay [2], the system named is 8,000 human proteins (GST fusion). The assay is described as follows: Invitrogen Protoarray Human Protein Microarray binding pattern (8,000 features). Particulars: fluorescence intensity on human protein microarray. The procedure:
Two biotinylated anti-TRF synbodies (SYN23-26 and SYN 21-22) were applied to a protein microarray having 8,000 features (Invitrogen Protoarray Human Protein Microarray v. 4.0 for immune response biomarker profiling), each feature comprising a distinct human protein (GST fusion) adsorbed to a nitrocellulose coated slide. Application of the synbodies to the microarray was performed in accordance with manufacturer instructions: (see ProtoArray Human Protein Microarray, Invitrogen, Catalog no. PAH052401, Version B, 15 Dec. 2006, 25-0970, Users Manual.) After blocking the array with 1% BSA/PBS/0.1% Tween for 1 hour at 4C with gentle shaking, 120 μl of probing buffer (1×PBS, 5 mM mgC12, 0.5 mM DTT, 0.05% Triton X-100, 5% glycerol, 1% BSA) with synbody was applied to the array. The prescribed cover slip was placed over the array and adjusted to remove air bubbles. The array was incubated in a 50 ml conical tube, printed side up, for 1.5 hours at 4C without shaking. The array was then removed from the conical tube inserted diagonally into the array chamber, kept on ice. 8 ml probing buffer was added to the chamber wall. The cover slip was removed and the array was incubated in probing buffer for 1 minute on ice. […] The array was dried in the dark for 60 minutes at room temperature, after which it was scanned using a fluorescent microarray scanner and data was taken and analyzed.

The target of a further assay is AKT1 (Homo sapiens, UniProt P31749). The assay is described as follows: SPR of SYN23-26 binding to AKT1. Particulars: read-out: estimated Kd with respect to AKT1.
Sequence of AKT1 (P31749 whole entry): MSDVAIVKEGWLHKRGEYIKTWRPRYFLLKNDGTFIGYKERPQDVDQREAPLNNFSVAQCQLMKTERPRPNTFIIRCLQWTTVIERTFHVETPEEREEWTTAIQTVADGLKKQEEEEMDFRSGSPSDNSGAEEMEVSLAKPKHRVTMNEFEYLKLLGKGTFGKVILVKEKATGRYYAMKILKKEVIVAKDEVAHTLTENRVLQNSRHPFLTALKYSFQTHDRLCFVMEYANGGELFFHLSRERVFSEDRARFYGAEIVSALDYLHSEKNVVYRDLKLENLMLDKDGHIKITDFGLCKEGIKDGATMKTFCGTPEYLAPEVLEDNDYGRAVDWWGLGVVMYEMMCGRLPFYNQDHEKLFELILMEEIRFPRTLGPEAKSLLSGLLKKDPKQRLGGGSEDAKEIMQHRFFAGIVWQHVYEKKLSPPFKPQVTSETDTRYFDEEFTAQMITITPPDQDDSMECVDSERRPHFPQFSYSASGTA
Assay [3] addresses T1, transferrin. The assay is described as follows: SPR of SYN23-26 binding to transferrin. Particulars: read-out: estimated Kd with respect to transferrin.

Bridges are numbered along the chain shown (N, C = ends). Roman numbers before positions name the chains, in order. Where no end group is shown, it is not given here.

T1 sequence (P02787 20-698): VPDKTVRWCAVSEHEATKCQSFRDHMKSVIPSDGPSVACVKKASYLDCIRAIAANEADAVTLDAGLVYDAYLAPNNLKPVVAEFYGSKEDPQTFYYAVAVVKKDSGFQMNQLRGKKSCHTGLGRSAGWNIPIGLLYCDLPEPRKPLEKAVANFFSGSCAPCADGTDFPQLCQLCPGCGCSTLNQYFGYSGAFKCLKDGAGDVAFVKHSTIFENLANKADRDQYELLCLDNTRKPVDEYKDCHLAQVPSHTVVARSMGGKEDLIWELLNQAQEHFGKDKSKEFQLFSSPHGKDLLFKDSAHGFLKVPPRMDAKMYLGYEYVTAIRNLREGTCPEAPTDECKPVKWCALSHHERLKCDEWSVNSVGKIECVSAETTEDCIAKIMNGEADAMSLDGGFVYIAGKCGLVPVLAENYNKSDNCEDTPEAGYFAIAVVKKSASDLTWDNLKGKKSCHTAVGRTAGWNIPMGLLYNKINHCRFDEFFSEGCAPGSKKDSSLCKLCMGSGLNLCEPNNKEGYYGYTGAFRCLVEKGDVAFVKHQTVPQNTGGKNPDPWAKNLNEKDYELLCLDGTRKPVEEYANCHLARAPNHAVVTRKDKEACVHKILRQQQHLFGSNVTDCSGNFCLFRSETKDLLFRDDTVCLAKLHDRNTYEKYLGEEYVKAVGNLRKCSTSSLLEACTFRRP

“I: AHKVVPQRQIRHAYNRYGSGKC / II: FRGWAHIFFGPHVIYRGGSG (amide I:21-II:C) [SYN23-26]”: the results for the dissociation constant Kd on transferrin [1], on AKT1 and on transferrin [3] were 150 ± 50 nM, around 1 nM and around 141 nM, respectively. In addition, in assay [2], the “highest affinity target from a library of 8,000” value is given as “PCCA”.
